How the values were obtained:
Test in all cases: relative viability (nuclei count vs DMSO), 5 days (fraction); higher = more cells survive
NCI-H1975 = tested on: NCI-H1975
Summary of the method: (§1)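 Nuclei were stained with Hoechst during a one-step fixation (final 0.05% Triton X-100, 1% formaldehyde, 1 ug/ml Hoechst) carried out 5 days after dosing, then counted on 4× images. The cells, lung cancer lines in 1536-well plates, had been dosed by pin tool the day after seeding with one drug alone or a fixed anchor-drug dose plus five library-drug doses (not always all listed) in √10 steps. Relative viability is the nuclei count in treated wells divided by that in vehicle wells, and each value is the median of duplicate plates.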

NCI-H460 = tested on: NCI-H460
Summary of the method: as §1

NCI-H441 = tested on: NCI-H441
Summary of the method: as §1

SK-LU-1 = tested on: SK-LU-1
Summary of the method: as §1

NCI-H1944 = tested on: NCI-H1944
Summary of the method: as §1

PC-3 [JPC-3] = tested on: PC-3 [JPC-3]
Summary of the method: as §1

NCI-H1755 = tested on: NCI-H1755
Summary of the method: as §1

NCI-H2347 = tested on: NCI-H2347
Summary of the method: as §1

EMC-BAC-2 = tested on: EMC-BAC-2
Summary of the method: as §1

NCI-H1355 = tested on: NCI-H1355
Summary of the method: as §1

LCLC-97TM1 = tested on: LCLC-97TM1
Summary of the method: as §1

O=c1[nH]c2ccccc2n1C1CCN(CCCC(c2ccc(F)cc2)c2ccc(F)cc2)CC1 [Pimozide] + C[C@]1(O)C[C@@H](c2nc(-c3ccc4ccc(-c5ccccc5)nc4c3)c3c(N)nccn32)C1 [Linsitinib] (partner 1 µM)
relative viability (NCI-H1975; first compound 0.08 µM): 0.95
relative viability (NCI-H1975; first compound 0.253 µM): 1.04
relative viability (NCI-H1975; first compound 0.8 µM): 0.964
relative viability (NCI-H1975; first compound 2.53 µM): 0.926
relative viability (NCI-H1975; first compound 8 µM): 0.741
relative viability (NCI-H460; first compound 0.08 µM): 0.964
relative viability (NCI-H460; first compound 0.253 µM): 0.725
relative viability (NCI-H460; first compound 0.8 µM): 0.707
relative viability (NCI-H460; first compound 2.53 µM): 0.727
relative viability (NCI-H460; first compound 8 µM): 0.649
relative viability (NCI-H441; first compound 0.08 µM): 0.496
relative viability (NCI-H441; first compound 0.253 µM): 0.53
relative viability (NCI-H441; first compound 0.8 µM): 0.752
relative viability (NCI-H441; first compound 2.53 µM): 0.483
relative viability (NCI-H441; first compound 8 µM): 0.389
relative viability (SK-LU-1; first compound 0.08 µM): 1.11
relative viability (SK-LU-1; first compound 0.253 µM): 1.12
relative viability (SK-LU-1; first compound 0.8 µM): 0.902
relative viability (SK-LU-1; first compound 2.53 µM): 0.732
relative viability (SK-LU-1; first compound 8 µM): 0.851
relative viability (NCI-H1944; first compound 0.08 µM): 1.02
relative viability (NCI-H1944; first compound 0.253 µM): 1.07
relative viability (NCI-H1944; first compound 0.8 µM): 1.05
relative viability (NCI-H1944; first compound 2.53 µM): 1.3
relative viability (NCI-H1944; first compound 8 µM): 1.22
relative viability (PC-3 [JPC-3]; first compound 0.253 µM): 0.985
relative viability (PC-3 [JPC-3]; first compound 0.8 µM): 0.896
relative viability (PC-3 [JPC-3]; first compound 2.53 µM): 0.983
relative viability (PC-3 [JPC-3]; first compound 8 µM): 0.883
relative viability (NCI-H1755; first compound 0.08 µM): 0.94
relative viability (NCI-H1755; first compound 0.253 µM): 1.02
relative viability (NCI-H1755; first compound 0.8 µM): 0.97
relative viability (NCI-H1755; first compound 2.53 µM): 0.939
relative viability (NCI-H1755; first compound 8 µM): 0.845
relative viability (NCI-H2347; first compound 0.08 µM): 1.03
relative viability (NCI-H2347; first compound 0.253 µM): 0.941
relative viability (NCI-H2347; first compound 0.8 µM): 0.836
relative viability (NCI-H2347; first compound 2.53 µM): 0.944
relative viability (NCI-H2347; first compound 8 µM): 0.958
relative viability (EMC-BAC-2; first compound 0.08 µM): 0.768
relative viability (EMC-BAC-2; first compound 0.253 µM): 0.787
relative viability (EMC-BAC-2; first compound 0.8 µM): 0.828
relative viability (EMC-BAC-2; first compound 2.53 µM): 0.828
relative viability (EMC-BAC-2; first compound 8 µM): 0.749
relative viability (NCI-H1355; first compound 0.08 µM): 0.701
relative viability (NCI-H1355; first compound 0.253 µM): 0.804
relative viability (NCI-H1355; first compound 0.8 µM): 0.758
relative viability (NCI-H1355; first compound 2.53 µM): 0.803
relative viability (NCI-H1355; first compound 8 µM): 0.762
relative viability (LCLC-97TM1; first compound 0.08 µM): 0.179
relative viability (LCLC-97TM1; first compound 0.253 µM): 0.166
relative viability (LCLC-97TM1; first compound 0.8 µM): 0.171
relative viability (LCLC-97TM1; first compound 2.53 µM): 0.169
relative viability (LCLC-97TM1; first compound 8 µM): 0.146
